Source: patent publication EP3046573B1, “AMYLIN ANALOGUES” (Zealand Pharma A/S, priority 2013, dated 2015)
Numbered stars: 1 amine (or outer) side, 2 acyl side, 3 side chain; on linkers, the order of the positions; unused ones are H or OH. Bridge positions count the residues as written; N and C are the ends. Square brackets hold non-standard residues; d marks the D form. Peptide text beside a SMILES is read from it. * marks the point of attachment. C20 diacid = O=C(O)CCCCCCCCCCCCCCCCCCC(=O)*; γGlu = O=C(O)[C@H](CCC(=O)[*:2])N[*:1]; NMeI = CC[C@H](C)[C@H](NC)C(=O)O; Sar = CNCC(=O)O

Test: Solubility assessment (turbidity absorbance at 325 nm)
Type: physicochemical
Settings: stock 2 mg/ml diluted 1:1, ambient temperature (typically 25°C), n=1; for Solubility, Acetate buffer pH 4: 100 mM acetate buffer pH 4.0; for Solubility, Acetate buffer pH 5: 100 mM acetate buffer pH 5.0; for Solubility, Histidine buffer pH 6: 100 mM histidine buffer pH 6.0; for Solubility, Histidine buffer pH 7: 100 mM histidine buffer pH 7.0; for Solubility, Phosphate buffer pH 6: 100 mM phosphate buffer pH 6.0; for Solubility, Phosphate buffer pH 7: 100 mM phosphate buffer pH 7.0; for Solubility, Phosphate buffer pH 7.5: 100 mM phosphate buffer pH7.5
Experimental: A stock solution of the test peptide (2 mg/ml; determined from the weighed amount of peptide) in demineralized water adjusted to pH 2.5 with HCI was prepared, and aliquots were diluted 1:1 in 100 mM acetate buffer (pH 4.0 and pH 5.0), 100 mM histidine buffer (pH 6.0 and pH 7.0) and 100 mM phosphate buffer (pH 6.0, pH 7.0 and pH7.5), respectively, and loaded in a standard flat-bottom, non-sterile 96-well UV Microplate. The absorbance of samples (single samples, n=1) at 280 and 325 nm was measured in an absorbance-based plate reader, which was preheated to ambient temperature (typically 25°C). The turbidity absorbance criterion for a peptide solubility of ≥ 1 mg/ml was an absorbance at 325 nm of ≤ 0.02 absorbance units (which is 5 to 6 times the standard deviation of 8 buffer samples in a plate). Solubility data for peptides of the invention, pramlintide, and for a comparison pramlintide derivative denoted NN96 (see Example 5 below for details) are shown in Table 1, below. Table 1. Solubility data for compounds of the invention.

CC[C@H](C)[C@@H](C(=O)N[C@@H](CC(C)C)C(=O)N[C@@H](CO)C(=O)N[C@@H](CO)C(=O)N[C@H](C(=O)N[C@@H](CC(N)=O)C(=O)N[C@H](C(=O)NCC(=O)N[C@@H](CO)C(=O)N[C@@H](CC(N)=O)C(=O)N[C@H](C(=O)N1CCC[C@H]1C(N)=O)[C@@H](C)O)C(C)C)[C@@H](C)O)N(C)C(=O)[C@H](C)NC(=O)CN(C)C(=O)[C@H](Cc1ccccc1)NC(=O)[C@H](CC(N)=O)NC(=O)[C@H](CC(N)=O)NC(=O)[C@H](CO)NC(=O)[C@H](CO)NC(=O)[C@H](Cc1c[nH]cn1)NC(=O)[C@H](Cc1c[nH]cn1)NC(=O)[C@@H](CC(C)C)NC(=O)[C@H](Cc1ccccc1)NC(=O)[C@H](CCC(=O)O)NC(=O)[C@H](C)NC(=O)[C@H](CC(C)C)NC(=O)[C@H](CCCNC(=N)N)NC(=O)[C@H](CCC(N)=O)NC(=O)[C@@H](NC(=O)[C@H](C)NC(=O)[C@@H]1CSSC[C@H](NC(=O)[C@H](CCCNC(=N)N)NC(=O)CC[C@H](NC(=O)CCCCCCCCCCCCCCCCCCC(=O)O)C(=O)O)C(=O)N[C@@H](CC(N)=O)C(=O)N[C@@H]([C@@H](C)O)C(=O)N[C@@H](C)C(=O)N[C@@H]([C@@H](C)O)C(=O)N1)[C@@H](C)O [Compound 10, [19CD]-isoGlu-RC()NTATC()ATQRLAEF-DLeu-HHSSNNF-Gly(Me)-A-Ile(Me)-LSSTNVGSNTP-NH2] ({C20 diacid-γGlu}-RCNTATCATQRLAEF[dL]HHSSNNF[Sar]A[NMeI]LSSTNVGSNTP-NH2; disulfide 2-7)
SS (SS indicates solubility ≥ 1mg/ml): Solubility, Acetate buffer pH 4 | Solubility, Acetate buffer pH 5 | Solubility, Histidine buffer pH 6 | Solubility, Histidine buffer pH 7 | Solubility, Phosphate buffer pH 6 | Solubility, Phosphate buffer pH 7 | Solubility, Phosphate buffer pH 7.5

CC[C@H](C)[C@@H](C(=O)N[C@@H](CC(C)C)C(=O)N[C@@H](CO)C(=O)N[C@@H](CO)C(=O)N[C@H](C(=O)N[C@@H](CC(N)=O)C(=O)N[C@H](C(=O)NCC(=O)N[C@@H](CO)C(=O)N[C@@H](CC(N)=O)C(=O)N[C@H](C(=O)N1CCC[C@H]1C(N)=O)[C@@H](C)O)C(C)C)[C@@H](C)O)N(C)C(=O)[C@H](C)NC(=O)CN(C)C(=O)[C@H](Cc1ccccc1)NC(=O)[C@H](CC(N)=O)NC(=O)[C@H](CC(N)=O)NC(=O)[C@H](CO)NC(=O)[C@H](CO)NC(=O)[C@H](CCCNC(=N)N)NC(=O)[C@H](Cc1c[nH]cn1)NC(=O)[C@H](CC(C)C)NC(=O)[C@H](Cc1ccccc1)NC(=O)[C@H](CCC(=O)O)NC(=O)[C@H](C)NC(=O)[C@H](CC(C)C)NC(=O)[C@H](CCCNC(=N)N)NC(=O)[C@H](CCC(N)=O)NC(=O)[C@@H](NC(=O)[C@H](C)NC(=O)[C@@H]1CSSC[C@H](NC(=O)[C@H](CCCCN)NC(=O)CC[C@H](NC(=O)CCCCCCCCCCCCCCCCCCC(=O)O)C(=O)O)C(=O)N[C@@H](CC(N)=O)C(=O)N[C@@H]([C@@H](C)O)C(=O)N[C@@H](C)C(=O)N[C@@H]([C@@H](C)O)C(=O)N1)[C@@H](C)O [Compound 57, [19CD]-isoGlu-KC()NTATC()ATQRLAEFLHRSSNNF-Gly(Me)-A-Ile(Me)-LSSTNVGSNTP-NH2] ({C20 diacid-γGlu}-KCNTATCATQRLAEFLHRSSNNF[Sar]A[NMeI]LSSTNVGSNTP-NH2; disulfide 2-7)
SS (SS indicates solubility ≥ 1mg/ml): Solubility, Acetate buffer pH 4 | Solubility, Acetate buffer pH 5 | Solubility, Histidine buffer pH 6 | Solubility, Histidine buffer pH 7 | Solubility, Phosphate buffer pH 6 | Solubility, Phosphate buffer pH 7 | Solubility, Phosphate buffer pH 7.5

CC[C@H](C)[C@@H](C(=O)N[C@@H](CC(C)C)C(=O)N[C@@H](CO)C(=O)N[C@@H](CO)C(=O)N[C@H](C(=O)N[C@@H](CC(N)=O)C(=O)N[C@H](C(=O)NCC(=O)N[C@@H](CO)C(=O)N[C@@H](CC(N)=O)C(=O)N[C@H](C(=O)N1CCC[C@H]1C(N)=O)[C@@H](C)O)C(C)C)[C@@H](C)O)N(C)C(=O)[C@H](C)NC(=O)CN(C)C(=O)[C@H](Cc1ccccc1)NC(=O)[C@H](CC(N)=O)NC(=O)[C@@H](CC(N)=O)NC(=O)[C@H](CO)NC(=O)[C@H](CO)NC(=O)[C@H](Cc1c[nH]cn1)NC(=O)[C@H](Cc1c[nH]cn1)NC(=O)[C@H](CC(C)C)NC(=O)[C@H](Cc1ccccc1)NC(=O)[C@H](CCC(=O)O)NC(=O)[C@H](C)NC(=O)[C@H](CC(C)C)NC(=O)[C@H](CCCNC(=N)N)NC(=O)[C@H](CCC(N)=O)NC(=O)[C@@H](NC(=O)[C@H](C)NC(=O)[C@@H]1CSSC[C@H](NC(=O)[C@H](CCCNC(=N)N)NC(=O)CC[C@H](NC(=O)CCCCCCCCCCCCCCCCCCC(=O)O)C(=O)O)C(=O)N[C@@H](CC(N)=O)C(=O)N[C@@H]([C@@H](C)O)C(=O)N[C@@H](C)C(=O)N[C@@H]([C@@H](C)O)C(=O)N1)[C@@H](C)O [Compound 32, [19CD]-isoGlu-RC()NTATC()ATQRLAEFLHHSS-DAsn-NF-Gly(Me)-A-Ile(Me)-LSSTNVGSNTP-NH2] ({C20 diacid-γGlu}-RCNTATCATQRLAEFLHHSS[dN]NF[Sar]A[NMeI]LSSTNVGSNTP-NH2; disulfide 2-7)
SS (SS indicates solubility ≥ 1mg/ml): Solubility, Acetate buffer pH 4 | Solubility, Acetate buffer pH 5 | Solubility, Histidine buffer pH 6 | Solubility, Histidine buffer pH 7 | Solubility, Phosphate buffer pH 6 | Solubility, Phosphate buffer pH 7 | Solubility, Phosphate buffer pH 7.5
